According to patent US20230391772A1, “METHODS AND COMPOSITIONS FOR TARGETED PROTEIN DEGRADATION” (Ranok Therapeutics (Hangzhou) Co. Ltd., priority 2020, published 2023):

Tests used:
KRAS(G12C) = KRAS(G12C) (Homo sapiens, UniProt P01116, G12C); assay: KRAS(G12C)/SOS1 homogeneous time-resolved fluorescence (HTRF) assay; parameters: purchased Cisbio 63ADK000CB16PEG; conditions: absence of GTP, 4° C. for 3 hr, read-out: KRAS (G12C) binding
Protocol: KRAS(G12C)/SOS1 Homogeneous Time-Resolved Fluorescence (HTRF) Assay
Binding of test compounds to KRAS(G12C) protein, which in turn blocks KRAS(G12C) interaction with the SOS1 protein, was measured in the absences of GTP by homogeneous time-resolved fluorescence (HTRF) using the KRAS-G12C/SOS1 Binding Assay Kit (Cisbio, #63ADK000CB16PEG), following the manufacturer's instructions, except as noted. 3-fold serial dilutions of each test compound were prepared ranging from […] to 1.02 nM. The test compound was mixed and incubated with reaction components, incubated in a sealed plate at 4° C. for 3 hr and fluorescence was measured using a PerkinElmer Envision plate reader.

HSP90a protein = target: T1, HSP90a protein (Homo sapiens, UniProt P07900); assay: HSP90α-binding fluorescent polarization (FP) assay, BODIPY-labeled RNK04010 probe; conditions: FP competition with RNK04010 (BODIPY-labeled), 5 nM, 300 min at 25° C.
T1 construct: purchased BPS Bioscience 50298
How it was run: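 Polarization signal was read after equilibration at 25° C, for 120 min with FITC-geldanamycin or 300 min with the BODIPY-tagged RNK04010 probe, each at 5 nM final. Compounds spanned 20 μM down to 5.2 nM in 2.5-fold dilutions against the HSP90a N-terminal domain.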

[1] = tested on: MIA PaCa-2 human pancreatic carcinoma; assay: MIA PaCa-2 CCK-8 proliferation assay; format: cell-based; conditions: Homo sapiens, MIA PaCa-2, 72 h, MIA PaCa-2 cells
How it was run: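 Percent inhibition derived from CCK-8 optical signal, normalised between DMSO-only cells (0%) and cell-free medium containing DMSO as background. Cells: MIA PaCa-2 carrying 2 KRAS(G12C) copies; NCI-H358, NCI-H23 carrying 1 copy apiece. Concentrations spanned 1.02 nM–20 μM in threefold increments.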

KRAS(G12C), sequence (P01116 1-188 isoform P01116-2 G12C): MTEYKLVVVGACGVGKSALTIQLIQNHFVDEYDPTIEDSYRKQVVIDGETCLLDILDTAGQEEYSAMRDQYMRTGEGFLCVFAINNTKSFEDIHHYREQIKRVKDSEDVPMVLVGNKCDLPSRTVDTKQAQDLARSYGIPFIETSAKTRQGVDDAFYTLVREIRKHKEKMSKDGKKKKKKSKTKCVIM

SMILES | IC50 (KRAS(G12C)) [nM] | IC50 (HSP90a protein) [nM] | EC50 [1] [nM]
C=CC(=O)N1CCN(c2nc(OC[C@@H]3CN(C(=O)C4CCN(Cc5ccc(-n6c(O)nnc6-c6cc(C)c(O)cc6O)cc5)CC4)CCN3C)nc3c2CCN(c2cccc4cccc(Cl)c24)C3)C[C@@H]1CC#N [Compound 203, 2-((S)-1-acryloyl-4-(7-(8-chloronaphthalen-1-yl)-2-(((S)-4-(1-(4-(3-(2,4-dihydroxy-5-methylphenyl)-5-hydroxy-4H-1,2,4-triazol-4-yl)benzyl)piperidine-4-carbonyl)-1-methylpiperazin-2-yl)methoxy)-5,6,7,8-tetrahydropyrido[3,4-d]pyrimidin-4-yl)piperazin-2-yl)acetonitrile, trifluoroacetic acid] | 100 to 1000 | < 100 | > 1000
C=CC(=O)N1CCN(c2nc(OC[C@@H]3C[C@@H](NC(=O)C4CCN(Cc5ccc(-n6c(O)nnc6-c6cc(C(C)C)c(O)cc6O)cc5)CC4)CN3C)nc3c2CCN(c2cccc4cccc(Cl)c24)C3)C[C@@H]1CC#N [Compound 205, N-((3R,5S)-5-(((4-((S)-4-acryloyl-3-(cyanomethyl)piperazin-1-yl)-7-(8-chloronaphthalen-1-yl)-5,6,7,8-tetrahydropyrido[3,4-d]pyrimidin-2-yl)oxy)methyl)-1-methylpyrrolidin-3-yl)-1-(4-(3-(2,4-dihydroxy-5-isopropylphenyl)-5-hydroxy-4H-1,2,4-triazol-4-yl)benzyl)piperidine-4-carboxamide] | 100 to 1000 | < 100 | 100 to 1000
C=C(F)C(=O)N1CCN(c2nc(OCCN3CCN(C(=O)C4CCN(Cc5ccc(-n6c(C(=O)NCC(F)(F)F)nnc6-c6cc(C(C)C)c(O)cc6O)cc5)CC4)CC3)nc3c2CCN(c2cccc4cccc(Cl)c24)C3)C[C@@H]1CC#N [Compound 207, (S)-4-(4-((4-(4-(2-((7-(8-chloronaphthalen-1-yl)-4-(3-(cyanomethyl)-4-(2-fluoroacryloyl)piperazin-1-yl)-5,6,7,8-tetrahydropyrido[3,4-d]pyrimidin-2-yl)oxy)ethyl)piperazine-1-carbonyl)piperidin-1-yl)methyl)phenyl)-5-(2,4-dihydroxy-5-isopropylphenyl)-N-(2,2,2-trifluoroethyl)-4H-1,2,4-triazole-3-carboxamide] | 100 to 1000 | < 100 | < 100
CCC(=O)N1CCN(c2nc(OCCN3CCN(C(=O)C4CCN(Cc5ccc(-n6c(C(=O)NCC(F)(F)F)nnc6-c6cc(C(C)C)c(O)cc6O)cc5)CC4)CC3)nc3c2CCN(c2cccc4cccc(Cl)c24)C3)C[C@@H]1CC#N [Compound 208, (S)-4-(4-((4-(4-(2-((7-(8-chloronaphthalen-1-yl)-4-(3-(cyanomethyl)-4-propionylpiperazin-1-yl)-5,6,7,8-tetrahydropyrido[3,4-d]pyrimidin-2-yl)oxy)ethyl)piperazine-1-carbonyl)piperidin-1-yl)methyl)phenyl)-5-(2,4-dihydroxy-5-isopropylphenyl)-N-(2,2,2-trifluoroethyl)-4H-1,2,4-triazole-3-carboxamide] | > 1000 | < 100 | < 100
C=CC(=O)N1CCN(c2nc(OCCN3CCC4(CC3)CCN(C(=O)C3CCN(Cc5ccc(-n6c(C(=O)NCC(F)(F)F)nnc6-c6cc(C(C)C)c(O)cc6O)cc5)CC3)CC4)nc3c2CCN(c2cccc4cccc(Cl)c24)C3)C[C@@H]1CC#N [Compound 209, (S)-4-(4-((4-(9-(2-((4-(4-acryloyl-3-(cyanomethyl)piperazin-1-yl)-7-(8-chloronaphthalen-1-yl)-5,6,7,8-tetrahydropyrido[3,4-d]pyrimidin-2-yl)oxy)ethyl)-3,9-diazaspiro[5.5]undecane-3-carbonyl)piperidin-1-yl)methyl)phenyl)-5-(2,4-dihydroxy-5-isopropylphenyl)-N-(2,2,2-trifluoroethyl)-4H-1,2,4-triazole-3-carboxamide] | < 100 | < 100 | < 100
C=CC(=O)N1CCN(c2nc(OCCN3CCC4(CC3)CCN(C(=O)C3CCN(Cc5ccc(-n6c(C(N)=O)nnc6-c6cc(C(C)C)c(O)cc6O)cc5)CC3)CC4)nc3c2CCN(c2cccc4cccc(Cl)c24)C3)C[C@@H]1CC#N [Compound 210, (S)-4-(4-((4-(9-(2-((4-(4-acryloyl-3-(cyanomethyl)piperazin-1-yl)-7-(8-chloronaphthalen-1-yl)-5,6,7,8-tetrahydropyrido[3,4-d]pyrimidin-2-yl)oxy)ethyl)-3,9-diazaspiro[5.5]undecane-3-carbonyl)piperidin-1-yl)methyl)phenyl)-5-(2,4-dihydroxy-5-isopropylphenyl)-4H-1,2,4-triazole-3-carboxamide] | < 100 | < 100 | < 100
C=CC(=O)N1CCN(c2nc(OCCN3CCC(C(=O)N4CCC(Cc5ccc(-n6c(O)nnc6-c6cc(C(C)C)c(O)cc6O)cc5)CC4)CC3)nc3c2CCN(c2cccc4cccc(Cl)c24)C3)C[C@@H]1CC#N [Compound 211, (S)-2-(1-acryloyl-4-(7-(8-chloronaphthalen-1-yl)-2-(2-(4-(4-(4-(3-(2,4-dihydroxy-5-isopropylphenyl)-5-hydroxy-4H-1,2,4-triazol-4-yl)benzyl)piperidine-1-carbonyl)piperidin-1-yl)ethoxy)-5,6,7,8-tetrahydropyrido[3,4-d]pyrimidin-4-yl)piperazin-2-yl)acetonitrile] | 100 to 1000 | < 100 | > 1000
C=CC(=O)N1CCN(c2nc(OCCN3CCC(C(=O)N4CCC(Cc5ccc(-n6c(C(=O)NCC(F)(F)F)nnc6-c6cc(C(C)C)c(O)cc6O)cc5)CC4)CC3)nc3c2CCN(c2cccc4cccc(Cl)c24)C3)C[C@@H]1CC#N [Compound 212, (S)-4-(4-((1-(1-(2-((4-(4-acryloyl-3-(cyanomethyl)piperazin-1-yl)-7-(8-chloronaphthalen-1-yl)-5,6,7,8-tetrahydropyrido[3,4-d]pyrimidin-2-yl)oxy)ethyl)piperidine-4-carbonyl)piperidin-4-yl)methyl)phenyl)-5-(2,4-dihydroxy-5-isopropylphenyl)-N-(2,2,2-trifluoroethyl)-4H-1,2,4-triazole-3-carboxamide] | 100 to 1000 | < 100 | 100 to 1000
C=CC(=O)N1CCN(c2nc(OC[C@@H]3C[C@H](NC(=O)C4CCN(Cc5ccc(-n6c(O)nnc6-c6cc(C(C)C)c(O)cc6O)cc5)CC4)CN3C)nc3c2CCN(c2cccc4cccc(Cl)c24)C3)C[C@@H]1CC#N [Compound 214, N-((3S,5S)-5-(((4-((S)-4-acryloyl-3-(cyanomethyl)piperazin-1-yl)-7-(8-chloronaphthalen-1-yl)-5,6,7,8-tetrahydropyrido[3,4-d]pyrimidin-2-yl)oxy)methyl)-1-methylpyrrolidin-3-yl)-1-(4-(3-(2,4-dihydroxy-5-isopropylphenyl)-5-hydroxy-4H-1,2,4-triazol-4-yl)benzyl)piperidine-4-carboxamide] | < 100 | < 100 | 100 to 1000
C=CC(=O)N1CCN(c2nc(OC[C@@H]3C[C@@H](NCc4ccc(-n5c(O)nnc5-c5cc(C(C)C)c(O)cc5O)cc4)CN3C)nc3c2CCN(c2cccc4cccc(Cl)c24)C3)C[C@@H]1CC#N [Compound 215, 2-((S)-1-acryloyl-4-(7-(8-chloronaphthalen-1-yl)-2-(((2S,4R)-4-((4-(3-(2,4-dihydroxy-5-isopropylphenyl)-5-hydroxy-4H-1,2,4-triazol-4-yl)benzyl)amino)-1-methylpyrrolidin-2-yl)methoxy)-5,6,7,8-tetrahydropyrido[3,4-d]pyrimidin-4-yl)piperazin-2-yl)acetonitrile] | 100 to 1000 | < 100 | 100 to 1000
C=CC(=O)N1CCN(c2nc(OCCN3CCN(Cc4cc(C(C)C)c(O)cc4O)CC3)nc3c2CCN(c2cccc4cccc(Cl)c24)C3)C[C@@H]1CC#N [Compound 216, (S)-2-(1-acryloyl-4-(7-(8-chloronaphthalen-1-yl)-2-(2-(4-(2,4-dihydroxy-5-isopropylbenzyl)piperazin-1-yl)ethoxy)-5,6,7,8-tetrahydropyrido[3,4-d]pyrimidin-4-yl)piperazin-2-yl)acetonitrile] | < 100 | 100 to 1000 | 100 to 1000
C=CC(=O)N1CCN(c2nc(OCCN3CCC4(CC3)CCN(Cc3cc(C(C)C)c(O)cc3O)CC4)nc3c2CCN(c2cccc4cccc(Cl)c24)C3)C[C@@H]1CC#N [Compound 217, (S)-2-(1-acryloyl-4-(7-(8-chloronaphthalen-1-yl)-2-(2-(9-(2,4-dihydroxy-5-isopropylbenzyl)-3,9-diazaspiro[5.5]undecan-3-yl)ethoxy)-5,6,7,8-tetrahydropyrido[3,4-d]pyrimidin-4-yl)piperazin-2-yl)acetonitrile] | < 100 | 100 to 1000 | > 1000
